# In patent US20020039746A1, “Methods for identifying peripheral benzodiazepine receptor binding agents” (priority 2000, published 2002):
# Entries after “also recorded” stand apart in the source; their conditions may differ.
# Columns and labels:
# [1] = test system: inducible PBzR overexpressing SH-SY5Y-derived cells (IPBR-1); assay: apoptogen-driven caspase activation in tetracycline-inducible PBzR overexpressing SH-SY5Y-derived cells; format: cell-based
# Protocol: (§1) Caspases are apoptosis-activated proteases, and caspase induction in cells is often indicative that the cells are undergoing programmed cell death (apoptosis). Apoptosis can be induced by a variety of compounds, including etoposide. S11 or vector control cells were plated at 30,000 cells/well in 96 well plates and grown for 20 hours. […] At this time, media was aspirated and caspase activity was measured by addition of 23 uM DEVD, a peptide that is fluorescent when cleaved by caspase 3, in PBS along with 0.03% digitonin. Fluorescence was measured in an Fmax™ 96-well plate reader (Molecular Devices, Sunnyvale, Calif.) using a kinetic assay. Total number of cells was determined using propidium iodide staining and used to normalize for total number of cells in each well.
# The effect of tetracycline induced PBzR overexpression on apoptogen-driven (C2-ceramide, 80 μM, 8 hrs) caspase activation was examined in a selected, oligoclonal tetracycline-inducible PBzR overexpressing SH-SY5Y-derived cell line (FIG. 20). […] The caspase response also correlated with cell viability determinations (FIG. 22), consistent with presumed caspase roles in apoptotic cascades. […] Western blot analysis of IPBR-1 mitochondrial fractions isolated on metrizamide gradients and normalized on the basis of mitochondrial ETC Complex IV activity (as described above) confirmed a dramatic increase in PBzR expression. No discernible change in Bcl-2 expression levels, however, accompanied the induction of PBzR overexpression.
# [2] = test system: IPBR-1 cells; assay: PBzR ligand effect on doxorubicin induced caspase activation in IPBR-1 cells; format: cell-based; settings: induced but not uninduced IPBR-1 cells, dose-dependent
# Text: Accordingly, the present invention provides the unexpected finding that peripheral benzodiazepine ligands may be distinguished on the basis of whether they preferentially alter apoptosis, and whether they preferentially alter a mitochondrial function. Data also indicate that benzodiazepine-related PBR ligands can act as effective anti-apoptotic agents, which may be of benefit in the treatment of certain neuropathologies and/or in chronic inflammatory conditions.
# [3] = molecular target: T1, PBzR (Homo sapiens, UniProt P30536); assay: displacement of [3H]PK-11195 binding to the S11 PBzR overexpressing clone; settings: read-out: IC50, displacement of [3H]PK-11195; 6 μg S11 protein per data point
# T1 construct: expressed in transfected cells; host or cells: S11, clonal SH-SY5Y-derived stably transfected PBzR-overexpressing line
# Protocol: Additional experiments were performed to further characterize the binding of ligand to PBzR.
# The S11 cell line was used as a source of PBzR.
# [4] = test system: S11 cells and vector control cells; assay: caspase activation (DEVD cleavage) in S11 and vector control cells; format: cell-based
# Protocol: as §1
# Etoposide and ceramide treatments were as described above.
# [5] = molecular target: T2, peripheral benzodiazepine receptor (PBR, PBzR) (Homo sapiens, UniProt P30536); assay: [3H]PK-11195 saturation binding to cell membranes
# T2 construct: expressed in transfected cells; membranes
# [6] = PK-11195 induced cell death, propidium iodide staining, vector control cells; format: cell-based; settings: human, vector control cells (low Bcl-2 expression), read-out: percent of non-viable cells
# Protocol: (§2) This provides apparent evidence for a functional link between PBR and Bcl-2. […] Cell viability was determined by propidium iodide staining cells and quantifying fluorescence with an Fmax™ plate reader (Molecular Devices, Sunnyvale, Calif.) according to the manufacturer's instructions.
# [7] = test system: S11 mitochondria; assay: cytochrome C release upon calcium induced permeability transition; format: cell-based
# [8] = PK-11195 induced cell death, propidium iodide staining, S11 cells; format: cell-based; settings: human, read-out: percent of non-viable cells
# Protocol: as §2
# T2 sequence (P30536 whole entry): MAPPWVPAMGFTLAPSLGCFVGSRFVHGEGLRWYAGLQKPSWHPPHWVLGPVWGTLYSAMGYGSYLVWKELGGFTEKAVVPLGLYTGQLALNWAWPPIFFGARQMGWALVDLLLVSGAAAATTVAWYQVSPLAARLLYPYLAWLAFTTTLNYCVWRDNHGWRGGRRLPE
# T1 sequence (P30536 whole entry): as above
structure (smiles),measurement,setting,value
"Nc1c[n+](N2CCOCC2)no1.[Cl-] [SIN-1, 3-morpholinosydnonimine, HCl]","caspase activation, induced versus uninduced cells","[1]; IPBR-1, 100-400 μM",resistance to caspase activation
"CN1C(=O)CN=C(c2ccc(Cl)cc2)c2cc(Cl)ccc21 [RO 05-4864, 4′chlorodiazepam]",effect on doxorubicin induced activation of caspase,[2],protective effect against the doxorubicin induced activation of caspase
same,IC50,[3],36.8 nM
CCCCCCCCCCCCC/C=C/[C@@H](O)[C@H](CO)NC(C)=O [C2-ceramide],"caspase activation, induced versus uninduced cells","[1]; oligoclonal tetracycline-inducible line, 80 μM, 8 hrs",resistance to ceramide-stimulated caspase activation
same,"caspase activation, S11 cells versus vector controls",[4]; concentrations of 80 and 100 μM,much greater activation of caspase in vector control cells than in the S11 cells
C/C=C(/C)C(=O)O[C@H]1C(C)=C2[C@H]([C@@H]1OC(=O)CCCCCCC)[C@@](C)(OC(C)=O)C[C@H](OC(=O)CCC)[C@@]1(O)[C@H]2OC(=O)[C@@]1(C)O [thapsigargin],"caspase activation, induced versus uninduced cells",[1]; tetracycline-induced IPBR-1,no reduction in caspase activation
"CCC(C)N(C)C(=O)c1cc2ccccc2c(-c2ccccc2Cl)n1 (stereo not drawn) [PK-11195, 1-(2-chlorophenyl)-N-methyl-N-(1-methylpropyl)-3-isoquinolinecarboxamide]",Bmax (pmol/mg),[5]; Jurkat Vector,Not detected
same,Bmax,[5]; S11,43 pmol/mg
same,receptor concentration from saturation binding curves,[5]; S11 SY5Y clone / pooled over-expressors as worded,25 pmol/mg
same,Bmax,[5]; SH-SY5Y Vector,1.8 pmol/mg
same,binding maximum (BMAX),[5]; native SY5Y cells,1.8 pmol/mg
same,binding maximum (BMAX),[5]; stable PBR expressing SY5Y cells,25 ± 1.5 pmol/mg
same,"cytotoxicity at 24 h, 20 µM",[6]; 20 μM,~10%
same,"cytotoxicity at 24 h, 100 µM",[6]; 100 μM,~40%
same,release of cytochrome C from mitochondria,[7],caused a release of cytochrome C
same,"cytotoxicity at 24 h, 100 µM",[8],< 20%
COc1cccc2c1C(=O)c1c(O)c3c(c(O)c1C2=O)C[C@@](O)(C(=O)CO)C[C@@H]3O[C@H]1C[C@H](N)[C@H](O)[C@H](C)O1 [doxorubicin],"caspase activation, induced versus uninduced cells","[1]; IPBR-1, 4 μM, 8 hrs",moderated the degree of caspase activation
COc1cc([C@@H]2c3cc4c(cc3[C@@H](O[C@@H]3O[C@@H]5CO[C@@H](C)O[C@H]5[C@H](O)[C@H]3O)[C@H]3COC(=O)[C@H]23)OCO4)cc(OC)c1O [etoposide],"caspase activation, S11 cells versus vector controls","[4]; etoposide 2-6 μM, six hours",caspase activation occurred at a higher rate in S11 cells than in vector controls; also recorded: greater activation of caspase in S11 cells than in vector controls
